Where two headings read alike, the source gives them in different places.
Legend:
[1] = tested on: cat flea (Ctenocephalides felis); assay: whole plant or invertebrate; type: in vivo; conditions: Ctenocephalides felis; for mortality at 1.26 µg/cm2, 1.26 µg/cm2: Laboratory 2 B data
Procedure, shortened: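 Adult C. felis (3-7 days post-emergence; 15 per flask, at least 4 replicates) exposed to a glass flask base dried 24 h after coating with compound in acetone at 1.26 μg/cm^2. Held at 25±1 °C, 75±5% humidity; mortality (immobile or unable to right) scored at 8, 24 and/or 48 h as percentage.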

[2] = tested on: Brown Dog Tick (Rhipicephalus sanguineus); assay: Rapid screening protocol for topical application on brown dog ticks; type: in vivo; conditions: for mortality at 5 µg/tick: Rhipicephalus sanguineus, read-out: R. sanguineus Mortality (%) 24 h; for mortality at 5 µg/tick / Rhipicephalus sanguineus Mortality (%) 24 h: topical, 24 h; for R. sanguineus Mortality (%) 48 h: Laboratory 2 F data; for Rhipicephalus sanguineus Mortality (%) 24 h: 10 μg of active per tick in 1 μL acetone, adult ticks, Laboratory 1 E data
Protocol: d) Rapid Screening Protocol for Topical Application on Brown Dog Ticks (Rhipicephalus sanguineus)
The aim of the test was to determine the presence of significant acaricidal activity in sample compounds or formulations when applied topically on brown dog ticks. A tick was defined as dead if it gave no apparent response when touched lightly and observed for 1 minute. […] Both permethrin and fipronil were employed as reference compounds. The insect species tested was the Brown Dog Tick (Rhipicephalus sanguineus). Mixed sex adult ticks were used for tests. The strain used was cultured by von Berky Veterinary Services, Woody Point, QLD, AU and supplied as unfed adult ticks (mixed sex). Ticks were maintained in controlled conditions (temp. 18°+2° C., humidity 75±5% RH).
Temperature was maintained at 25±1° C. and the humidity was ambient. […] Ticks were each treated on the abdomen with 1 μL of a single dose level of test sample in acetone; ten ticks were treated with solvent only (acetone) in each test. Tests were replicated 4 times (total of 40 ticks treated). […]

[3] = 8 h, read-out: C. felis Mortality (%) 8 h, 8 h
[4] = 24 h, read-out: C. felis Mortality (%) 24 h, 24 h
[5] = 8 h, read-out: Ctenocephalides felis Mortality (%) 8 h
[6] = 24 h, read-out: Ctenocephalides felis Mortality (%) 24 h
[7] = 48 h, read-out: Ctenocephalides felis Mortality (%) 48 h

| SMILES | mortality at 1.26 µg/cm2, 1.26 µg/cm2 [1, 3] [%] | mortality at 1.26 µg/cm2, 1.26 µg/cm2 [1, 4] [%] | mortality at 5 µg/tick [2] [%] | R. sanguineus Mortality (%) 48 h [2] [%] | mortality at 1.26 µg/cm2 [1, 5] [%] | mortality at 1.26 µg/cm2 [1, 6] [%] | Rhipicephalus sanguineus Mortality (%) 24 h [2] [%] | mortality at 1.26 µg/cm2 [1, 7] [%] |
| --- | --- | --- | --- | --- | --- | --- | --- | --- |
| CC/C(=N\OC(C)c1ccc(Cl)cc1)c1cc(Cl)ccc1NS(=O)(=O)C(F)(F)F (stereo not drawn) [Compound 257] | 5 | 96 | 40 | – | – | – | – | – |
| C/C(=N\OCC1CCCO1)c1cc(Cl)ccc1NS(=O)(=O)C(F)(F)F (stereo not drawn) [Compound 203] | 98 | 98 | – | 95 | – | – | – | – |
| CC/C(=N\OCc1ccc(Cl)cc1)c1ccc(C(F)(F)F)cc1NS(=O)(=O)C(F)(F)F [Compound 220] | 54 | 100 | – | 62 | – | – | – | – |
| CC/C(=N\Oc1ccc(F)cc1)c1ccc(C(F)(F)F)cc1NS(=O)(=O)C(F)(F)F [Compound 214] | 98 | 100 | – | 20 | – | – | – | – |
| CC/C(=N\OCc1ccc(C(F)(F)F)cc1)c1ccc(C(F)(F)F)cc1NS(=O)(=O)C(F)(F)F [Compound 221] | 44 | 100 | – | 67 | – | – | – | – |
| C/C(=N\Oc1ccc(Cl)cc1)c1ccc(C(F)(F)F)cc1NS(=O)(=O)C(F)(F)F [Compound 199, N-{2-[1-(4-chlorophenoxyimino)ethyl]-5-trifluoromethylphenyl}trifluoromethanesulfonamide] | 82 | 100 | – | 5 | – | – | – | – |
| O=S(=O)(Nc1ccc(Cl)cc1/C(=N/OC1CCCCC1)C1CCCCC1)C(F)(F)F [Compound 212] | 24 | 100 | – | 57 | – | – | – | – |
| CC(C)/C(=N\Oc1ccc(F)cc1)c1cc(Cl)ccc1NS(=O)(=O)C(F)(F)F [Compound 216] | 97 | 100 | – | 72 | – | – | – | – |
| CCC/C(=N\OC(C)C)c1cc(Cl)ccc1NS(=O)(=O)C(F)(F)F [Compound 191] | 52 | 100 | – | 92 | – | – | – | – |
| CC/C(=N\OCc1cccnc1)c1cc(Cl)ccc1NS(=O)(=O)C(F)(F)F [Compound 206] | 97 | 100 | – | 52 | – | – | – | – |
| C/C(=N\Oc1ccc(F)cc1)c1ccc(C(F)(F)F)cc1NS(=O)(=O)C(F)(F)F [Compound 200, N-{2-[1-(4-fluorophenoxyimino)ethyl]-5-trifluoromethylphenyl}trifluoromethanesulfonamide] | 93 | 100 | – | 17 | – | – | – | – |
| O=S(=O)(Nc1ccc(Cl)cc1-c1ccon1)C(F)(F)F [Compound 293] | – | – | – | – | 60 | 100 | 80 | – |
| CC/C(=N\Oc1ccc(Cl)cc1)c1ccc(C(F)(F)F)cc1NS(=O)(=O)C(F)(F)F [Compound 201] | 85 | 100 | – | 22 | – | – | – | – |
| CCC/C(=N\OC1CCCC1)c1cc(Cl)ccc1NS(=O)(=O)C(F)(F)F [Compound 195] | 33 | 100 | – | 97 | – | – | – | – |
| CC/C(=N\OCC1CCCC1)c1cc(Cl)ccc1NS(=O)(=O)C(F)(F)F [Compound 197] | 80 | 97 | – | 100 | – | – | – | – |
| CC/C(=N\OCc1ccc(Cl)cc1)c1cc(Cl)ccc1N(C(C)=O)S(=O)(=O)C(F)(F)F [Compound 307, N-acetyl-N-{4-chloro-2-[1-(4-chlorobenzyloxyimino)propyl]phenyl}trifluoromethanesulfonamide] | – | – | – | – | – | 10 | 5 | 98 |

| SMILES | mortality at 1.26 µg/cm2, 1.26 µg/cm2 [1, 3] [%] | mortality at 1.26 µg/cm2, 1.26 µg/cm2 [1, 4] [%] | mortality at 5 µg/tick [2] [%] | R. sanguineus Mortality (%) 48 h [2] [%] | mortality at 1.26 µg/cm2 [1, 5] [%] | mortality at 1.26 µg/cm2 [1, 6] [%] | Rhipicephalus sanguineus Mortality (%) 24 h [2] [%] | mortality at 1.26 µg/cm2 [1, 7] [%] |
| --- | --- | --- | --- | --- | --- | --- | --- | --- |
| C/C(=N\OCC1CCCCC1)c1ccc(C(F)(F)F)cc1NS(=O)(=O)C(F)(F)F [Compound 217] | 46 | 90 | – | 30 | – | – | – | – |
| CC/C(=N\OCC(F)(F)F)c1cc(Cl)ccc1NS(=O)(=O)C(F)(F)F [Compound 184] | 100 | 100 | – | 92 | – | – | – | – |
| CC/C(=N\OCc1ccccn1)c1cc(Cl)ccc1NS(=O)(=O)C(F)(F)F [Compound 204] | 100 | 100 | – | 87 | – | – | – | – |
| O=S(=O)(Nc1ccc(Cl)cc1/C(=N/OCC1CCCCC1)C1CCCCC1)C(F)(F)F [Compound 209] | 38 | 93 | – | 22 | – | – | – | – |
| CC(C)(C)/C(=N\Oc1ccc(F)cc1)c1cc(Cl)ccc1NS(=O)(=O)C(F)(F)F [Compound 198, N-{4-chloro-2-[1-(4-fluorophenoxyimino)2,2-dimethylpropyl]phenyl}trifluoromethanesulfonamide] | 16 | 92 | – | 35 | – | – | – | – |
| C/C(=N\OCc1ccc(C(F)(F)F)cc1)c1ccc(C(F)(F)F)cc1NS(=O)(=O)C(F)(F)F [Compound 219] | 69 | 100 | – | 60 | – | – | – | – |
| CCO/N=C(/c1cc(Cl)ccc1NS(=O)(=O)C(F)(F)F)C1CCCCC1 [Compound 213] | 53 | 100 | – | 90 | – | – | – | – |
| CC/C(=N\OCCOC)c1cc(Cl)ccc1NS(=O)(=O)C(F)(F)F [Compound 183] | 100 | 100 | – | 100 | – | – | – | – |
| C/C(=N\OCc1cccnc1)c1cc(Cl)ccc1NS(=O)(=O)C(F)(F)F [Compound 188] | 98 | 98 | – | 40 | – | – | – | – |
| CCOCN(c1ccc(Cl)cc1/C(CC)=N/OCc1ccc(Cl)cc1)S(=O)(=O)C(F)(F)F [Compound 302] | – | – | – | – | – | 3 | 5 | 82 |
| O=S(=O)(Nc1ccc(Cl)cc1/C(=N/OC1CCCC1)C1CCCCC1)C(F)(F)F [Compound 211] | 46 | 100 | – | 90 | – | – | – | – |
| CC/C(=N\OCC1CCCCC1)c1ccc(C(F)(F)F)cc1NS(=O)(=O)C(F)(F)F [Compound 222] | 27 | 96 | – | 32 | – | – | – | – |
| CCC(O/N=C(\C)c1cc(Cl)ccc1NS(=O)(=O)C(F)(F)F)c1ccccc1 (stereo not drawn) [Compound 255] | 1 | 100 | 22 | – | – | – | – | – |
| CC(=O)N(c1ccc(Cl)cc1/C(C)=N/Oc1ccc(F)cc1)S(=O)(=O)C(F)(F)F [Compound 308] | – | – | – | – | 29 | 100 | 7 | – |
| C/C(=N\OCc1ccc(Cl)cc1)c1ccc(C(F)(F)F)cc1NS(=O)(=O)C(F)(F)F [Compound 218] | 90 | 100 | – | 75 | – | – | – | – |
